The subject of one test is HGS2 cells. Description: cell viability by colony formation assay, HGS2. Format: cell-based, mouse. The settings on record: HGS2, 10 μM, 8 days. How it is done: FIG. 6A-FIG. 6K show KDM5A inhibition promotes anti-tumor immune response in vivo. (FIG. 6A) Expression of H3K4me3, Kdm5a and a loading control b-actin in an independent second doxycycline-inducible shKdm5a ID8 clone treated with or without 2 μg/mL of doxycycline. (FIG. 6B) Same as FIG. 6A, but doxycycline-inducible shKdm5a ID8 cells were plated into 24 well plates and treated with 2 μg/mL of doxycycline the same day. Cells were incubated for 8 days. Relative cell viability was determined by colony formation assay. (FIG. 6C) Expression of H3K4me3, Kdm5a and a loading control b-actin in HGS2 cells treated 10 μM of CPI-455 or vehicle controls for 72 hours. […] Relative cell viability was determined by colony formation assay. (FIG. 6E-FIG. 6F) Bioluminescence signal was measured by IVIS system in indicated animal groups in the immunocompetent C57BL/6 mouse model once a week (FIG. 6E) and the survival of the indicated groups was determined by Kaplan-Meier survival curves (FIG. 6F) (n=5 mice per group). […] Ascites volumes produced from the indicated groups were quantified (FIG. 6H). n=5 mice per group. […] (FIG. 6J-FIG. 6K) Bioluminescence signal was measured by IVIS system in indicated animal groups in the immunocompromised NSG mouse model once a week (FIG. 6J), or examined for Kaplan-Meier survival curves for the indicated groups (FIG. 6K). […]

In the next test the test system is HGSOC cell lines. As to the kind of experiment: dose response by colony formation assay in HGSOC/EOC cell lines. Type of test: cell-based, human. The note with it: panel of EOC cell lines, regardless of KDM5A expression status, dose response curve. An excerpt:
FIG. 5A-FIG. 5G show KDM5A is overexpressed in HGSOC and its expression negatively correlates with infiltration of CD8+ T cells. (FIG. 5A) Correlation between KDM5A and CD8A expression in the TCGA HGSOC dataset. (FIG. 5B) Correlation between KDM5A and CD8A expression in a published laser capture and microdissected (LCM) HGSOC dataset. (FIG. 5C) Correlation between KDM5A and PRFI expression in the TCGA HGSOC dataset. (FIG. 5D) Representative images of KDM5A IHC staining of HGSOC in a tumor microarray. (FIG. 5E) Relative expression of KDM5A in LCM of HGSOC and normal human ovarian surface epithelial cells (HOSE) or fallopian tube epithelial cells (FTE). (FIG. 5F) Expression of KDM5A and a loading control β-actin in the indicated FTE cells and HGSOC cell lines determined by immunoblot. (FIG. 5G) Dose response curves to KDM5A inhibitor CPI-455 determined by colony formation assay in the indicated HGSOC cell lines. Data represent mean±SEM; P values were calculated by using a two-tailed Student t test except in FIG. 5A and FIG. 5B by using Pearson r analysis.
Insulin/Transferrin/Selenium (Invitrogen, Cat #51300), […] Hydrocortisone (Sigma, Cat #H0135), 10 ng/ml Murine epidermal growth factor (Sigma, Cat #E4127) and 1% penicillin/streptomycin at 37° C.with 5% CO2. […]

Turning to CPI-455, in the test on HGS2 cells, the cell viability entry is given as “did not affect cell viability”. Further, in the test on HGSOC cell lines, the “cell viability in vitro” value was “did not affect cell viability”.

(Values after US20240139197A1, “INHIBITION OF KDM5A FOR PROMOTING ANTIGEN PRESENTATION, INCREASING CD8+ T CELL INFILTRATION AND BOOSTING ANTI-TUMOR IMMUNE RESPONSE” (The Wistar Institute of Anatomy and Biology, priority 2022, published 2024).)
